The source of these data is patent publication US9820967B2 (priority 2014, dated 2017).

For orientation: IC50 means the concentration needed to halve the response being measured.

“And” between values parts separate entries of the source, which are not always exact repeats. Equal values may be shown once. “Also recorded” adds a separate entry of the source. Read-outs that look alike come from different tables or passages of the source.

Series [1] has as its system efflux pump (EPI functionality). The series is described as follows: EPI functionality assays of authentic standard. It is filed as cell-based, Escherichia coli. An excerpt:
Moreover, this “halogenome” appeared to be dominated by brominated metabolites, with only some metabolites (<10) that were additionally chlorinated. […] Relative concentrations of halogenated compounds from clade IV appeared different even within members of the same species, indicative of intraspecies chemical diversity and further subclustering among isolates of the same species (A757, A754, A746, and B149), a phenomenon previously described for P. luteoviolacea strains. […] The presence of 2,3,4-tribromopyrrole was also determined (retention time 20.1 min, major ion m/z 301.7639), which was present in A757, A754, and A746, but not in B149. […]
(§1) To truly be considered an efflux pump inhibitor (EPI), the compound must increase the level of accumulation and decrease the level of extrusion of efflux pump substrates. The fluorescent DNA-binding dye Hoechst 33342 (H33342) a known substrate for RND pumps, is easily detected in the cell, can freely permeate the outer membrane, and can act as a reporter, all allowing for quantification of transport across living cells. Efflux-competent cells extrude H33342 and accumulate dye at a relatively slow rate, resulting in low levels of background fluorescence. Conversely, efflux-defective cells (e.g., presence of EPI) accumulate intracellular levels of H33342 at a higher rate, resulting in fluorescence retention. […]

Series [2] relates to murine lymphocytic leukemia cells. Conditions: cited from earlier work.
Series [3] has as its target H33342 efflux in E. coli AG100 (AcrAB-TolC) (Escherichia coli, UniProt P31224). The series is described as follows: Hoechst 33342 efflux assay, AG100. In kind it is cell-based. The source says:
To truly be considered an efflux pump inhibitor (EPI), the compound must increase the level of accumulation and decrease the level of extrusion of efflux pump substrates. The fluorescent DNA-binding dye Hoechst 33342 (H33342) a known substrate for RND pumps, is easily detected in the cell, can freely permeate the outer membrane, and can act as a reporter, all allowing for quantification of transport across living cells. Efflux-competent cells extrude H33342 and accumulate dye at a relatively slow rate, resulting in low levels of background fluorescence. Conversely, efflux-defective cells (e.g., presence of EPI) accumulate intracellular levels of H33342 at a higher rate, resulting in fluorescence retention. Wild-type E. coli K-12 strain, AG100, and AG100A, the ΔacrAB mutant, a generous gift from Dr. M. Viveiros (Universidad Nova de Lisboa, Portugal), were used in accumulation and efflux assays. […] All experiments were performed in duplicate. Heat-inactivated bacteria were used as a positive control to assess maximal dye accumulation.

The subject of series [4] is E. coli strains overexpressing efflux pumps (AG102, MG1655 ΔBC/pABM, MG1655 ΔBC/pXYM; AcrAB-TolC, MexAB-OprM, MexXY-OprM). It is filed as cell-based, Escherichia coli.
Text: The checkerboard assay was used to determine whether 3,4-dibromopyrrole-2,5-dione potentiates the activity of two fluoroquinolones (ciprofloxacin (CIP) and levofloxacin (LEV)), an aminoglycoside (kanamycin (KAN)), a macrolide (erythromycin (ERY)), two β-lactams (oxacillin (OXA) and piperacillin (PIP)), tetracycline (TET), and chloramphenicol (CHL), known substrates for resistance nodulation cell division pump (RND) transporters, against test strains of multidrug resistant (MDR) E. coli. Interactions between 3,4-dibromopyrrole-2,5-dione and various antibiotics were classified based upon the fractional inhibitory concentration index (FICI), where a FIC of <0.5 is synergistic and indicative of the presence of an efflux pump inhibitor (EPI); 0.5-1 is indifferent; and >1 is antagonistic. […]
Bacterial susceptibility of extracts were tested in duplicate at 1 mg/mL and determined by rapid p-iodonitrotetrazolium chloride colorimetric assay in 96-well microtiter plates in a final volume of 200 μL as previously described (Kuete (2010), Antimicrob. Agents Chemother., 54, 1749-1752). […]
To assess the interaction between different classes of antibiotics and 3,4-dibromopyrrole-2,5-dione, standard checkerboard assays were performed in which the minimum inhibitory concentrations (MICs) of antibiotics were determined in the presence of different concentrations of 3,4-dibromopyrrole-2,5-dione. […]
Series [5] concerns E. coli mutant AG100A (ΔacrAB), lacking the pump. It is filed as cell-based, Escherichia coli. To be noted: transporter deficient.
Text: (§2) Upon entering the bacterial cell, H33342 becomes fluorescent once bound to the DNA minor groove.
as §1
(§3) For accumulation assays, in efflux-competent cells such as AG100, H33342 would be extruded resulting in low levels of background fluorescence, while the presence of a putative EPI would cause intracellular H33342 accumulation. […] Fluorescence values for wells containing media and compounds only were subtracted from those containing bacteria to control for any background fluorescence due to the presence of test compounds. […]

Series [6] has as its target wild-type E. coli AG100 expressing the AcrAB-TolC pump (Escherichia coli, UniProt P31224). In kind it is cell-based.
Text: as §2, §1, §3

For the next series, the system named is fungi. Conditions: Tsukamoto et al. (2001); cited from earlier work.

Chain of wild-type E. coli AG100 expressing the AcrAB-TolC pump (P31224 whole entry): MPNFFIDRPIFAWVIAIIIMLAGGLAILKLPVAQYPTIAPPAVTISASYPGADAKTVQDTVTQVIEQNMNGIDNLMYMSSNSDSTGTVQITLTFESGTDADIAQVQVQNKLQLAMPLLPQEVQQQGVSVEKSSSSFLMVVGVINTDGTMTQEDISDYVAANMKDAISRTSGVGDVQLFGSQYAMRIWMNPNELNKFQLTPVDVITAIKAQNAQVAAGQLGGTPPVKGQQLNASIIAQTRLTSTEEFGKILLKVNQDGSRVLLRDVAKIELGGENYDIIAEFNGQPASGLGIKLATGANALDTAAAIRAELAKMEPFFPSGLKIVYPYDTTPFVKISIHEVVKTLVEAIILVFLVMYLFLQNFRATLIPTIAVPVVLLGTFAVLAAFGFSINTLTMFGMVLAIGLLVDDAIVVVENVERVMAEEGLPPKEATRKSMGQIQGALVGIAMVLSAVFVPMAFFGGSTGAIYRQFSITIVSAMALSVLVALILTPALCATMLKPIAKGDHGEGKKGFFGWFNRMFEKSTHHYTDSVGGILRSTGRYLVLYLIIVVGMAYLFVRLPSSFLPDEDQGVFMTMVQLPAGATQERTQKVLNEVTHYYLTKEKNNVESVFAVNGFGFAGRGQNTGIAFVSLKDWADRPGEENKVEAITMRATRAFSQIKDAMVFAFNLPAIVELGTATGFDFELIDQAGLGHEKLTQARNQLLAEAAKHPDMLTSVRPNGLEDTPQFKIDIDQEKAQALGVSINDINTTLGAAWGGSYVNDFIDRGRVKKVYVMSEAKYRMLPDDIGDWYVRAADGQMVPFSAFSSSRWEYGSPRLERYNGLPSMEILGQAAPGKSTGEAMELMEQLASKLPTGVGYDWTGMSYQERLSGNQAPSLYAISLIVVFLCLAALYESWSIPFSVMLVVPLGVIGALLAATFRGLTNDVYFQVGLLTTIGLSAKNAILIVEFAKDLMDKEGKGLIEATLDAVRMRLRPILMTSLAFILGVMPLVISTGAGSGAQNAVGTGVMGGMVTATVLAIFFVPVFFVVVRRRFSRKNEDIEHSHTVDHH
Chain of wild-type E. coli AG100 expressing the AcrAB-TolC pump (P0AE06 25-397, further chain): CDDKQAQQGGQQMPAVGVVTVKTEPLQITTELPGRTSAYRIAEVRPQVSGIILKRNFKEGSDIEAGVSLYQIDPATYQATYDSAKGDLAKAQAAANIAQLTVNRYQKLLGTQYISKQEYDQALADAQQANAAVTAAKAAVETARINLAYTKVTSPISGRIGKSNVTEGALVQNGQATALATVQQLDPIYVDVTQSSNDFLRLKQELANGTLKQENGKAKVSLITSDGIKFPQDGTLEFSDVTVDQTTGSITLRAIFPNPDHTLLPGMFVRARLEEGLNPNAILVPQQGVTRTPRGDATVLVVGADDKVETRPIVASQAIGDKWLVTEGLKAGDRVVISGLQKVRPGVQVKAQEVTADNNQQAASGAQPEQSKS
Chain of wild-type E. coli AG100 expressing the AcrAB-TolC pump (P02930 23-493, further chain): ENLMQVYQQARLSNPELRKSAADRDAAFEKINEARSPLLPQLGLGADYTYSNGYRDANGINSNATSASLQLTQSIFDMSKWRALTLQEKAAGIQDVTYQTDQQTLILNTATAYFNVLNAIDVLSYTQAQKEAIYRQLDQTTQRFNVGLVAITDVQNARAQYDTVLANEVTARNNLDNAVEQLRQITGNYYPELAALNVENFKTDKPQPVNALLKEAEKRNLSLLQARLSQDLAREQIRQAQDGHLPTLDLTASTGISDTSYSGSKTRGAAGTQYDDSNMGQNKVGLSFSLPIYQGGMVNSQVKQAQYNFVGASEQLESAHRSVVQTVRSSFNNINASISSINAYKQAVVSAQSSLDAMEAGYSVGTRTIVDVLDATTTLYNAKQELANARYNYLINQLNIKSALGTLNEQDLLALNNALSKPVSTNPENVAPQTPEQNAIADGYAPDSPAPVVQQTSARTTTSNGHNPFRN
Chain of H33342 efflux in E. coli AG100 (AcrAB-TolC) (P31224 whole entry): as the sequence (P31224 whole entry) above
Chain of H33342 efflux in E. coli AG100 (AcrAB-TolC) (P0AE06 25-397, further chain): as the sequence (P0AE06 25-397, further chain) above
Chain of H33342 efflux in E. coli AG100 (AcrAB-TolC) (P02930 23-493, further chain): as the sequence (P02930 23-493, further chain) above

`Brc1[nH]c(Br)c(Br)c1Br` [2,3,4,5-tetrabromopyrrole]: in series [1], the “EPI activity of authentic standard” value is listed as “not to be responsible for the EPI activity”.
With `O=C1NC(=O)C(Br)=C1Br` [3,4-dibromopyrrole-2,5-dione], the cytotoxicity result in series [2] is on record as “cytotoxicity”. Besides, in series [3], the IC50 was 3.1 µM and 3 µM; the “most dilute concentration with significant (p<0.05) H33342 efflux inhibition vs solvent controls” value was 0.06 µg/mL. Further, in series [3] (0.06-64 μg/mL, glucose, 37° C.), the “inhibition of H33342 efflux vs control wells” value was “near-complete inhibition”. In addition, in series [4] (all antibiotics tested with the exception of piperacillin), the “interaction by fractional inhibitory concentration index (FICI)” value was “synergistic (a FIC of <0.5 is synergistic and indicative of the presence of an efflux pump inhibitor (EPI))”. For the same compound, the “antibacterial activity of compound alone, concentration” value in series [4] (all three E. coli strains overexpressing efflux pumps) was over 100 µg/mL. The “effect on H33342 fluorescence (accumulation)” value in series [5] was “no effect”. Further, in series [5] (listed as 3,4-Dibromopyrrole-2,5-dione), the “effect on H33342 fluorescence (accumulation)” value was “not”. In series [6], the “concentration equal to or more effective than PAβN (15.6 μg/mL) in causing H33342 accumulation” value is at least 1 µg/mL and the “intracellular H33342 fluorescence (accumulation)” value was “dose-dependent increase; also recorded: increased”. Besides, the antifungal activity entry with fungi is given as “modest antifungal activity”.
